According to patent US20140357706A1, “Stearate Compounds” (THE UAB RESEARCH FOUNDATION, priority 2011, published 2014):

What was measured:
[1] = test system: caspase-3; test: Caspase-3 activity assay in 3T3L1 preadipocytes; type: cell-based, mouse; settings: 48 hours treatment
Protocol: 50 μM of stearate, oleate or linoleate was used to treat 3T3L1 cells as this concentration is centered within the normal range for non-esterified stearate in the plasma of humans. Stearate, oleate, or linoleate was loaded onto fatty acid free BSA according to the method reported by Spector and Hoak (Spector and Hoak, 1969). Briefly, stearate (0.5 g) was dissolved in chloroform (100 mL) and mixed well with 10 g diatomaceous earth in a 1 liter flask. The mixture was stirred and dried under nitrogen until powder. Fatty acid free BSA (1 g) was dissolved in 100 mL with DMEM without phenol red and mixed with 3 g of the stearate/diatomaceous earth mixture and stirred for 30 minutes. The stearate/BSA solution was filtered through a 0.45 μm filter, and adjusted to pH 7.4. The concentration of stearate in the solution was detected by use of a NEFA C kit. Oleic and linoleate were loaded in the same way. All experimental data on 3T3L1 cells were confirmed using fatty acid free BSA control solutions that were put through the same preparatory procedure described except for the fact that no fatty acid was added. Before the treatment with fatty acid, 3T3L1 preadipocytes were grown to 100%, and were starved in 2% FBS medium for 24 hours.
Caspase-3 activity was measured using the EnzCheck Capase-3 Activity Kit #1 according to the manufacturer's instructions (Molecular Probes Inc. Eugene, Oreg.).

[2] = test system: Hs578T human breast cancer cells; test: Flow cytometry cell cycle analysis; type: cell-based; settings: 50 μM stearate
Protocol: Hs578T human breast cancer cells (ATCC, HTB-126) were maintained according to the manufacturer's recommendations, in Dulbecco's modified Eagle's medium containing 10% fetal bovine serum, […] insulin and penicillin/streptomycin.
The concentration of stearate used to treat the Hs578T cells was 50 μM. When EGF was used, the concentration was 1 nM EGF. Before the treatment with stearate or EGF, cells were first starved for 24-48 hours. Stearate was loaded onto fatty acid-free bovine serum albumin (BSA) according to the method reported by Spector et al. (13); briefly, stearate (0.5 g) was dissolved in chloroform (100 ml) and mixed well with 10 g diatomaceous earth in a 1 liter flask. The mixture was stirred and dried under nitrogen until powder. BSA is a physiological carrier of fatty acids and was used to avoid the introduction of organic solvents to solutions coming into contact with cells. […] The concentration of stearate in the solution was detected with the NEFA C Kit from Wako Chemicals GmbH (Neuss, Germany). […]
To analyze cellular DNA content, confluent Hs578t cells were harvested, fixed in ice-cold 70% ethanol for 30 min and then resuspended in citrate buffer (4 mM sodium citrate) containing 50 μg/ml of propidium iodide and 100 μg/ml of RNase. […] Data were analyzed using the ModFit LT workshop program (BD Immunocytometry System, San Jose, Calif.).

[3] = test system: ERK; test: Immunoblot of phosphorylated ERK in Hs578T cells; type: cell-based, human; settings: between 8 and 16 h post-stearate, sustained up to 24 h
Protocol: The concentration of stearate used to treat the Hs578T cells was 50 μM. When EGF was used, the concentration was 1 nM EGF. Before the treatment with stearate or EGF, cells were first starved for 24-48 hours. Stearate was loaded onto fatty acid-free bovine serum albumin (BSA) according to the method reported by Spector et al. (13); briefly, stearate (0.5 g) was dissolved in chloroform (100 ml) and mixed well with 10 g diatomaceous earth in a 1 liter flask. The mixture was stirred and dried under nitrogen until powder. BSA is a physiological carrier of fatty acids and was used to avoid the introduction of organic solvents to solutions coming into contact with cells. Fatty acid-free BSA (1 g) was dissolved in 100 ml with Dulbecco's modified Eagle's medium without phenol red and mixed with 3 g of the stearate/diatomaceous earth mixture with stirring for 45 min. The stearate/BSA solution was filtered through a 0.45 μm filter, and adjusted to pH 7.4. The concentration of stearate in the solution was detected with the NEFA C Kit from Wako Chemicals GmbH (Neuss, Germany). All experimental data on Hs578T cells were controlled using fatty acid-free BSA control solutions that were put through the same preparatory procedure described for the stearate/BSA solution except for the fact that no fatty acid was added.
Cells were treated as described above, and lysed with lysis buffer. […]

[4] = test system: visceral adipocytes from ApoE knockout mice; test: Expression of cIAP2, Bcl-2 and Bax in visceral adipocyte cultures; type: cell-based; settings: 50 μM fatty acid; vs no additional fatty acid
Protocol: It was hypothesized that stearate induces apoptosis in visceral adipocytes by at least one of the following mechanisms: inhibition of cIAP2, activation of Bcl-2, and activation of BAX. […] Six cultures were exposed to each fatty acid or no fatty acid. The expression of cIAP2, Bcl-2, and Bax was measured in each culture. […] By decreasing levels of the cIAP2 and/or Bcl-2 polypeptides and increasing expression of the Bax polypeptide, stearate administration may lead to an increase in cellular apoptotic activity (such as but not limited to the visceral fat tissues). Without wishing to be bound by any given hypothetical model, it is proposed that this reduction in cIAP2 expression and this increase in Bax expression (independently or in combination) is responsible for the relative decrease in visceral fat tissue that is observed when animals are given a diet that is high in stearate.

- Caspase-3 activity [1]: increased significantly
SMILES: CCCCCCCCCCCCCCCCCC(=O)O [stearate, Stearic acid]
- Cells in the S phase [2]: reduced
- Number of cells in G0/G1 and G2/M ([2]; also in complete media and with EGF): increased
- Phosphorylation of ERK [3]: increased
- Expression of Bax [4]: increases
- Expression of cIAP2 [4]: reduces
